Measurements from patent US20090076141A1, “Use of Propofol Prodrugs for Treating Neuropathic Pain” (XenoPort, Inc., priority 2007, published 2009).

Experiments:
male rats = test: Multiple dose study in rats (five days, once a day); assay type: in vivo; details: oral gavage once a day for five days, 49 to 97 mg-eq/kg
Protocol: Multiple dose studies in rats were performed by orally administering compound (2) formulated in water to groups of male rats at doses of 49 mg-eq/kg to 97 mg-eq/kg for a period of five days, by oral gavages administered once a day.

male beagle dogs = test: Acute toxicity study, single oral dose in dogs; assay type: in vivo
Protocol: Acute toxicity studies were also performed by orally administering a single dose of compound (2) formulated in water to groups of male beagle dogs at doses from about 25 mg-eq/kg to about 150 mg-eq/kg.

rats = test: Acute toxicity study, single oral dose in rats; assay type: in vivo
Protocol: Acute toxicity studies in rats were undertaken to assess the tolerance of a single oral dose of compound (2) formulated in water. […] Complete recovery from hypoactivity, sedation, and anesthesia occurred in all rats within about 8 hours after dose. Doses above about 1552 mg-eq/kg (about 800 mg-eq/kg of propofol) were not tested.

[1] = cited from earlier work
[2] = oral dosing, rats; cited from earlier work
[3] = orally administered as homogeneous liquid suspension, relative to equivalent intravenous dose of propofol; cited from earlier work
[4] = rats, single oral dose about 49 to about 388 mg-eq/kg
[5] = rats, single oral dose about 582 to about 970 mg-eq/kg
[6] = rats, single oral dose about 1164 to about 1552 mg-eq/kg

**Q.** With `CC(C)c1cccc(C(C)C)c1OC(=O)OC[C@H](N)C(=O)O` (stereo in doubt) [Compound (2), 2-amino-3-(2,6-diisopropyl-phenoxycarbonyloxy)-propanoic acid] as the compound, how does the adverse effects (male rats) read?
**A.** The adverse effects was “No adverse effects were observed”.

**Q.** And the sedation or anesthesia (male rats)?
**A.** The sedation or anesthesia was “No sedation or anesthesia was observed”.

**Q.** What about the “tolerance of multiple doses” value (male rats) of the same compound?
**A.** The value was “well tolerated”.

**Q.** And the “tolerance of a single oral dose” value (male beagle dogs; formulated in water, about 25 to about 150 mg-eq/kg)?
**A.** Its value is “well tolerated”.

**Q.** And the sedation or anesthesia (male beagle dogs; single oral dose about 25 to about 150 mg-eq/kg)?
**A.** The sedation or anesthesia was “No sedation or anesthesia was observed”.

**Q.** And the “complete recovery from hypoactivity, sedation, and anesthesia, time after dose” value (rats; all rats, single oral dose)?
**A.** The value was at most 8 h.

**Q.** What about the “tolerance of a single oral dose” value (rats; rats, formulated in water, about 49 to about 1552 mg-eq/kg of administered compound) of the same compound?
**A.** The value was “well tolerated”.

**Q.** And the “onset of transient hypoactivity after dose” value (rats; [4])?
**A.** Its value is at most 30 min.

**Q.** And the “transient hypoactivity maintained, time post dose” value (rats; [4])?
**A.** The value was “up to 4 hours”.

**Q.** What about the “onset of sedation after dose” value (rats; [5]) of the same compound?
**A.** Its value is at most 1.5 h.

**Q.** What about the “sedation lasted, time post dose” value (rats; [5]) of the same compound?
**A.** The value was “up to 4 hours”.

**Q.** And the “anesthesia lasted, time post dose” value (rats; [6])?
**A.** The value was “up to 2 hours”.

**Q.** And the “onset of anesthesia after dose” value (rats; [6])?
**A.** Its value is at most 1 h.

**Q.** With `CC(C)c1cccc(C(C)C)c1OCOP(=O)(O)O` [O-phosphonooxymethyl propofol] as the compound, how does the “time to maximum propofol concentration” value ([1]; oral administration) read?
**A.** The value was “about 30 minutes”.

**Q.** What about the propofol oral bioavailability ([1]; rats, relative to equivalent intravenous dose of propofol) of the same compound?
**A.** The propofol oral bioavailability was 22.2%.

**Q.** Which results are given for `CC(C)c1cccc(C(C)C)c1O` [propofol, 2,6-diisopropylphenol]?
**A.** administered drug undergoing first pass metabolism [2]: approximately 90%; oral bioavailability [3]: less than 5%
